Assay [1] deals with E. coli ΔtolC pErmCL-ErmC. In words: MIC, broth microdilution, E. coli ΔtolC panel. In kind it is cell-based. The protocol: In order to create the construct pErmCL-ErmC, the vector backbone was amplified using pZa-fwd (5′-TAAGAATTCTCTAGCCCG-3′) and pZa-rev (5′-[…]-3′) primers, and the pERMZα plasmid as a template. The ermC gene was amplified from the pERMCTP plasmid with ErmC-fwd (5′-[…]-3′) and ErmC-rev (5′-TAGGCGGGCTAGAGAATTC-3′) primers. The joining of two DNA fragments was performed using the NEBuilder® HiFi DNA Assembly Master Mix (New England Biolabs, Ipswich, MA, USA). Sequences of intermediate products and the final construct were confirmed by Sanger sequencing with appropriate primers.
(§1) The E. coli ΔtolC strain was also transformed with the pErmC, pErmCL-ErmC, and pERMZα plasmids. The resulting strains were grown at 37 °C in LB medium supplied with 100 μg/mL ampicillin.
(§2) MIC values for a panel of E. coli ΔtolC strains were determined via the broth microdilution assay as described here with minor modifications. Briefly, the overnight E. coli culture was diluted to an OD600 of 0.01 in the fresh LB medium supplied with 100 μg/mL ampicillin, if required. Then, the cells were additionally incubated for 1–1.5 h at 37 °C with shaking at 200 rpm (Shaker-Incubator ES-20/80, BioSan, Riga, Latvia). Meanwhile, 100 μL of the liquid growth medium was placed in each well of a 96-well sterile plate (200 μL was placed in column 1). Solutions of tested compounds were added in the first column of the plate at 2 times the final concentration of 200 μg/mL. Then, 2-fold serial dilutions were performed. Immediately before use, bacterial inoculum was diluted (1:100) in the growth medium, and 100 μL of it was transferred in each well except for the sterility control column. The plate was incubated overnight (16–20 h) at 37 °C with constant shaking at 200 rpm (Shaker-Incubator ES-20/80, BioSan, Riga Latvia). Cell growth was assessed by scanning the OD600 with a VICTOR X5 Multilabel Plate Reader (PerkinElmer, Waltham, MA, USA).
(§3) Minimum inhibitory concentration (MIC) was defined as the lowest concentration of a chemical compound that inhibits the visible growth of the bacterial strain. At least three replicates of MIC measurements were performed.
In general terms: Dilution methods test growth across graded concentrations, often in twofold steps.

The test system of assay [2] is Propionibacterium acnes 55. In words: MIC, agar dilution, anaerobic bacteria (CLSI M11-A9). The class given is cell-based. The note with it: Cutibacterium acnes; P. acnes 55, anaerobic clinical isolate. (In agar dilution the substance is mixed into plates at graded concentrations.)
For assay [3], the system named is cell-free bacterial translation system based on the E. coli S30 lysate. In words: In vitro translation in a cell-free bacterial system (firefly luciferase synthesis). The class given is biochemical. As to conditions: final concentration 5 μM; water control = 100%. On the procedure: The inhibition of firefly luciferase (Fluc) synthesis by new azithromycin derivatives was assessed with the E. coli S30 Extract System for Linear Templates (Promega, Madison, WI, USA). Each reaction (5 μL total volume) was supplied with 0.1 mM mixture of all canonical amino acids, 4 U of RiboLock RNase Inhibitor (Thermo Fisher Scientific, Waltham, MA, USA), 0.1 mM of D-luciferin (Sigma-Aldrich, Burlington, MA, USA), 50 ng of firefly luciferase (Fluc) mRNA, and a chemical compound at a final concentration, as indicated in the main text, or nuclease-free water instead. Before the addition of mRNA, reaction tubes were pre-incubated at RT for 5 min and then placed back on ice. After the addition of mRNA, reaction mixtures were immediately subjected to continuous chemiluminescence measurement using the VICTOR X5 Multilabel Plate Reader (PerkinElmer, Waltham, MA, USA) at 37 °C for 30 min. Maximal rates of the firefly luciferase (Fluc) accumulation were calculated using the OriginPro 7.5 software. The values were normalized to a positive control (nuclease-free water, assigned a value of 100%). The results were visualized using the QtiPlot software (version 0.9.8.9).

Another assay has as its system 70S E. coli ribosomes. Description: Competition-binding assay with BODIPY-ERY (fluorescence anisotropy). The note with it: displacement of BODIPY-ERY; means, 95% confidence intervals; read-out: Apparent dissociation constant KD. On the procedure: Affinity of compounds to the 70S E. coli ribosomes (isolated from the E. coli MRE600 strain according to a published procedure) was evaluated with a competition-binding assay using fluorescently labeled erythromycin (BODIPY-ERY) as described earlier. Briefly, BODIPY-ERY (16 nM) was mixed with ribosomes (34 nM) in 384-well plates in the buffer containing 20 mM HEPES-KOH (pH 7.5), 50 mM NH4Cl, 10 mM Mg(CH3CO2)2, 4 mM β-mercaptoethanol, and 0.05% (v/v) Tween-20. Solutions of the tested compounds were added to the obtained complexes to final concentrations from 1 to 1000 nM and incubated for 2 h at 30 °C. The values of fluorescence anisotropy were obtained using the VICTOR X5 Multilabel Plate Reader (PerkinElmer, Waltham, MA, USA). Filters of 485 and 535 nm were used for excitation and emission, respectively. To calculate the apparent dissociation constants, the assumption that the competitive equilibrium binding of two ligands occurs at a single binding site was used. For each compound, at least 2 replicates were performed. Values of apparent dissociation constants are given as means with 95% confidence intervals. The results were visualized using the GraphPad Prism software (version 8.0.1).
On the technique in general: In fluorescence polarisation assays a small probe gives low polarisation when free and higher when bound to something large.

In another assay the test system is E. coli ΔtolC pERMZα. Description: MIC, broth microdilution, E. coli ΔtolC panel. In kind it is cell-based. The note with it: Escherichia coli. On the procedure:
as §1, §2, §3

A further assay has as its system E. coli ΔtolC pErmC. Description: MIC, broth microdilution, E. coli ΔtolC panel. In kind it is cell-based. The note with it: Escherichia coli. The protocol:
as §1, §2, §3

In assay [4] the test system is ribosome stalling on ermCL mRNA. In words: Toe-printing (primer extension inhibition) analysis on ermCL mRNA. In kind it is biochemical. The note with it: 50 μM (chloramphenicol 30 μM). On the procedure:
The toe-printing (primer extension inhibition) analysis of azithromycin derivatives was carried out essentially as previously described with some minor modifications, as indicated below. The DNA template ErmCL was generated by PCR using two overlapping primers, ErmCL-fwd (5′-[…]-3′) and ErmCL-rev (5′-[…]-3′). Before the addition of the DNA template to reaction mixtures at the in vitro translation step, tubes were pre-incubated at RT for 5 min. Moreover, phenol-chloroform extraction of reverse transcription products was replaced with DNA purification using the QIAquick® PCR Purification Kit (Qiagen, Hilden, Germany) according to the manufacturer’s protocol.
Figure 4 Toe-printing (or primer extension inhibition) analysis of azithromycin derivatives on ermCL mRNA. Ribosome stalling is detected via reverse transcription in a cell-free bacterial transcription–translation coupled system. The toe-printing bands are marked with colored arrowheads, and the A-site codons (except for the start codon, P-site codon is indicated) occupied by the stalled ribosomes are indicated in the mRNA sequence with the corresponding colors. The stop codon is marked with an asterisk. All compounds but chloramphenicol (CLM) were tested at 50 μM. Chloramphenicol (CLM) was tested at 30 μM. DMSO was used as a negative control at 0.25% final concentration. Thiostrepton (THS) was used to indicate the translation start site.

Molecules are shown by their SMILES. ≈ marks a conversion by molar mass, not a printed value. A value given as a limit tells only on which side of the number the result lay.

A word on the MIC: it is the lowest concentration that inhibits growth of the organism. As for `CC[C@H]1OC(=O)[C@H](C)[C@@H](O[C@H]2C[C@@](C)(OC)[C@@H](O)[C@H](C)O2)[C@H](C)[C@@H](O[C@@H]2O[C@H](C)C[C@H](N(C)C)[C@H]2O)[C@](C)(O)C[C@@H](C)CN(C)[C@H](C)[C@@H](O)[C@]1(C)O` [AZT, azithromycin], the “Fold increase in the MIC value on E. coli ΔtolC pErmCL-ErmC compared to E. coli ΔtolC” value in assay [1] worked out at 4 fold. Besides, the MIC in assay [1] (Escherichia coli) is 3.1 µg/mL (≈ 4.14 µM); in assay [2] it was under 0.06 µg/mL; with E. coli ΔtolC pERMZα, 0.8 µg/mL (≈ 1.07 µM); against E. coli ΔtolC pErmC, over 200 µg/mL. The “Relative luciferase activity (relative maximal rate of Fluc accumulation)” value in assay [3] worked out at 0.3%. For the same compound, the Kd in the assay with 70S E. coli ribosomes was 400 ± 100 pM. In assay [4], the “Ribosome stalling pattern on ermCL mRNA” value is “induces ribosome stalling when GUA (Val) or AGC (Ser) codons enter the A-site of the ribosome”.

Values taken from article PMC10892836, “Hybrid Molecules of Azithromycin with Chloramphenicol and Metronidazole: Synthesis and Study of Antibacterial Properties” (Pharmaceuticals, 2024).
